Where “and” joins values, the source holds several entries; their conditions need not be identical. Identical values can stand only once. Entries after “also recorded” stand apart in the source; their conditions may differ.
What was measured:
[1] = test system: intraocular pressure (IOP) of adult white rabbits; assay: Salted Rabbit Test: IOP after topical 1% w/v suspension; type: in vivo; details: for IOP change, individual rabbit (Rabbit No. 1-6): 1% w/v suspension, 3 drops
Procedure: In particular, an initial drop from the test formulation followed by two drops at one minute intervals are applied to one eye of each of six adult white rabbits that had been maintained ona diet containing 0.5% sodium. The treated eye was selected randomly, whereas, the fellow eye received placebo; the observer was masked. Results identified a small but significant reduction of intraocular pressure in the treated eye at 30, 60 and 120 minutes.
One drop, followed by two drops each at one minute intervals, was applied to one eye of normal adult white rabbits. Six rabbits were used in the experiment. The treated eye was selected randomly, whereas, the fellow eye received placebo. The observer was masked. The intraocular pressure (IOP) was measured with a Digilab Pneumotonometer, initially and every ten minutes for 120 minutes following instillation of the anti-glaucoma agent. A drop of local anesthetic was applied just prior to making the measurement.

[2] = test system: carbonic anhydrase; assay: in vitro carbonic anhydrase activity, simplified method of Maren; type: biochemical; design: averaged I50 (concentration of drug causing 50% inhibition of enzyme): unit not given here
Procedure: Water was added to the reaction vessel which was kept in a water bath at 0±0.25° C. The reaction cell was constantly purged with CO2 at a rate of 200 to 250 ml/min. Each reagent was added at a specified time and in a specified order. […] The time required for the reaction begins with the addition of carbonate buffer and was completed with the indicator changed from red to yellow. […] Reaction time was the time for the uncatalyzed reaction time. […] By varying the time before adding the carbonate buffer and then determining the reaction time, the equilibration time can be accurately determined. The reaction time was averaged over three determinations. […] (If two enzyme units are added, then the concentration of drug yielding a reaction time corresponding to the activity of one unit is taken as the I50). An enzyme unit (e.u.) was calculated from: [formula]

in vitro carbonic anhydrase inhibition, in words [2]: inactive in vitro | activity relative to acetazolamide (ratio of I50) ([2]; 0.52/0.00914): 1/60 | averaged I50 (concentration of drug causing 50% inhibition of enzyme) ([2]; heparinized blood, 2 enzyme units, 0 C): 0.520
SMILES: CNS(=O)(=O)c1nnc(NC(C)=O)s1 [methyl acetazolamide, N-methyl-2-acetylamino-1,3,4-thiadiazole-5-sulfonamide]
IOP change, individual rabbit (Rabbit No. 1-6) ([1]; 10 min): -4 mm Hg and -2 mm Hg and 0 mm Hg | IOP change, individual rabbit (Rabbit No. 1-6) ([1]; 20 min): -2 mm Hg and 0 mm Hg and -4 mm Hg and -3 mm Hg and 1 mm Hg | IOP change, individual rabbit (Rabbit No. 1-6) ([1]; 30 min): -3 mm Hg and -2 mm Hg and -1 mm Hg | IOP change, individual rabbit (Rabbit No. 1-6) ([1]; 40 min): 0 mm Hg and -1 mm Hg | IOP change, individual rabbit (Rabbit No. 1-6) ([1]; 50 min): -5 mm Hg and -2 mm Hg and -1 mm Hg and 0 mm Hg | IOP change, individual rabbit (Rabbit No. 1-6) ([1]; 60 min): -3 mm Hg and 1 mm Hg and -2 mm Hg and -1 mm Hg | IOP change, individual rabbit (Rabbit No. 1-6) ([1]; 70 min): -4 mm Hg and -2 mm Hg and 0 mm Hg and 2 mm Hg | IOP change, individual rabbit (Rabbit No. 1-6) ([1]; 80 min): -3 mm Hg and -4 mm Hg and 1 mm Hg and 0 mm Hg | IOP change, individual rabbit (Rabbit No. 1-6) ([1]; 90 min): -2 mm Hg and 1 mm Hg and -1 mm Hg and -4 mm Hg and 0 mm Hg and 3 mm Hg | IOP change, individual rabbit (Rabbit No. 1-6) ([1]; 100 min): -4 mm Hg and 0 mm Hg and -3 mm Hg and -2 mm Hg | IOP change, individual rabbit (Rabbit No. 1-6) ([1]; 110 min): -2 mm Hg and 0 mm Hg and 1 mm Hg | IOP change, individual rabbit (Rabbit No. 1-6) ([1]; 120 min): -3 mm Hg and 0 mm Hg and -1 mm Hg | reduction of intraocular pressure after topical administration, in words ([1]; rabbit, eye drops): lowering of IOP was statistically significant at all time intervals; also recorded: able to reduce intraocular pressure

— patent US4629738A, “Non-classical topical treatment for glaucoma” (University of Iowa Research Foundation, priority 1984, dated 1986)
